Data published in ChEMBL document CHEMBL5724806, “Unraveling interindividual differences and functional consequences of gut microbial metabolism of immunosuppressants” (2024).

Key:
Assay type in all cases: ADME
[1] = (§1) The drug is tested on Alloscardovia omnicolens strain: DSM21503 for biotransformation under anaerobic condition. The drug concentrations were measured over 6 timepoints collected between 0 and 12 hours of incubation by liquid-chromatography-coupled mass spectrometry (LC–MS); design: dose 5 uM, timepoint 0, 1.5, 3, 6, 9, 12 hours; conditions: 5 µM
[2] = as §1, with “the gut metagenome community of P-02 with ENA study accession number: PRJEB31790” for “Alloscardovia omnicolens strain: DSM21503”, “7” for “6”; design: dose 5 uM, timepoint 0, 0.75, 1.5, 3, 6, 9, 12 hours; conditions: 5 µM
[3] = The drug is tested on Eubacterium hallii strain: DSM3353 for biotransformation under anaerobic condition. The drug concentrations were measured over 6 timepoints collected between 0 and 12 hours of incubation by liquid-chromatography-coupled mass spectrometry (LC–MS); design: dose 5 uM, timepoint 0, 1.5, 3, 6, 9, 12 hours; conditions: anaerobutyricum hallii, 5 µM
[4] = (§2) The drug is tested on the gut metagenome community of A-02 with ENA study accession number: PRJEB31790 for biotransformation under microaerobic condition. The drug concentrations were measured over 7 timepoints collected between 0 and 12 hours of incubation by liquid-chromatography-coupled mass spectrometry (LC–MS); design: dose 5 uM, timepoint 0, 0.75, 1.5, 3, 6, 9, 12 hours; conditions: 5 µM
[5] = as §2, with “P-02” for “A-02”; design: dose 5 uM, timepoint 0, 0.75, 1.5, 3, 6, 9, 12 hours; conditions: 5 µM
[6] = The drug is tested on Gemella haemolysans strain: DSM107751 for biotransformation under microaerobic condition. The drug concentrations were measured over 6 timepoints collected between 0 and 12 hours of incubation by liquid-chromatography-coupled mass spectrometry (LC–MS); design: dose 5 uM, timepoint 0, 1.5, 3, 6, 9, 12 hours; conditions: 5 µM
[7] = as §2, with “P-01” for “A-02”, “anaerobic” for “microaerobic”; design: dose 5 uM, timepoint 0, 0.75, 1.5, 3, 6, 9, 12 hours; conditions: 5 µM
[8] = The drug is tested on Actinomyces naeslundi strain: DSM43013 for biotransformation under anaerobic condition. The drug concentrations were measured over 6 timepoints collected between 0 and 12 hours of incubation by liquid-chromatography-coupled mass spectrometry (LC–MS); design: dose 5 uM, timepoint 0, 1.5, 3, 6, 9, 12 hours; conditions: actinomyces naeslundii, 5 µM
[9] = The drug is tested on Roseburia intestinalis strain: DSM14610 for biotransformation under anaerobic condition. The drug concentrations were measured over 6 timepoints collected between 0 and 12 hours of incubation by liquid-chromatography-coupled mass spectrometry (LC–MS); design: dose 5 uM, timepoint 0, 1.5, 3, 6, 9, 12 hours; conditions: 5 µM
[10] = as §2, with “A-10” for “A-02”, “anaerobic” for “microaerobic”; design: dose 5 uM, timepoint 0, 0.75, 1.5, 3, 6, 9, 12 hours; conditions: 5 µM
[11] = The drug is tested on Streptococcus salivarius strain: DSM20560 for biotransformation under anaerobic condition. The drug concentrations were measured over 6 timepoints collected between 0 and 12 hours of incubation by liquid-chromatography-coupled mass spectrometry (LC–MS); design: dose 5 uM, timepoint 0, 1.5, 3, 6, 9, 12 hours; conditions: 5 µM
[12] = The drug is tested on Akkermansia muciniphila strain: DSM22959 for biotransformation under anaerobic condition. The drug concentrations were measured over 6 timepoints collected between 0 and 12 hours of incubation by liquid-chromatography-coupled mass spectrometry (LC–MS); design: dose 5 uM, timepoint 0, 1.5, 3, 6, 9, 12 hours; conditions: 5 µM
[13] = The drug is tested on Blautia hansenii strain: DSM20583 for biotransformation under anaerobic condition. The drug concentrations were measured over 6 timepoints collected between 0 and 12 hours of incubation by liquid-chromatography-coupled mass spectrometry (LC–MS); design: dose 5 uM, timepoint 0, 1.5, 3, 6, 9, 12 hours; conditions: 5 µM
[14] = The drug is tested on Escherichia coli strain: DSM27469 for biotransformation under anaerobic condition. The drug concentrations were measured over 6 timepoints collected between 0 and 12 hours of incubation by liquid-chromatography-coupled mass spectrometry (LC–MS); design: dose 5 uM, timepoint 0, 1.5, 3, 6, 9, 12 hours; conditions: 5 µM
[15] = The drug is tested on Collinsella aerofaciens strain: DSM3979 for biotransformation under anaerobic condition. The drug concentrations were measured over 6 timepoints collected between 0 and 12 hours of incubation by liquid-chromatography-coupled mass spectrometry (LC–MS); design: dose 5 uM, timepoint 0, 1.5, 3, 6, 9, 12 hours; conditions: 5 µM
[16] = The drug is tested on Streptococcus sanguinis strain: DSM20567 for biotransformation under anaerobic condition. The drug concentrations were measured over 6 timepoints collected between 0 and 12 hours of incubation by liquid-chromatography-coupled mass spectrometry (LC–MS); design: dose 5 uM, timepoint 0, 1.5, 3, 6, 9, 12 hours; conditions: 5 µM
[17] = The drug is tested on Escherichia coli strain: DSM27469 for biotransformation under microaerobic condition. The drug concentrations were measured over 6 timepoints collected between 0 and 12 hours of incubation by liquid-chromatography-coupled mass spectrometry (LC–MS); design: dose 5 uM, timepoint 0, 1.5, 3, 6, 9, 12 hours; conditions: 5 µM
[18] = as §2, with “P-04” for “A-02”; design: dose 5 uM, timepoint 0, 0.75, 1.5, 3, 6, 9, 12 hours; conditions: 5 µM
[19] = The drug is tested on Clostridium bolteae strain: DSM15670 for biotransformation under anaerobic condition. The drug concentrations were measured over 6 timepoints collected between 0 and 12 hours of incubation by liquid-chromatography-coupled mass spectrometry (LC–MS); design: dose 5 uM, timepoint 0, 1.5, 3, 6, 9, 12 hours; conditions: enterocloster bolteae, 5 µM
[20] = The drug is tested on Gemella haemolysans strain: DSM107751 for biotransformation under anaerobic condition. The drug concentrations were measured over 6 timepoints collected between 0 and 12 hours of incubation by liquid-chromatography-coupled mass spectrometry (LC–MS); design: dose 5 uM, timepoint 0, 1.5, 3, 6, 9, 12 hours; conditions: 5 µM
[21] = The drug is tested on Actinomyces graevenitzii strain: DSM15540 for biotransformation under microaerobic condition. The drug concentrations were measured over 6 timepoints collected between 0 and 12 hours of incubation by liquid-chromatography-coupled mass spectrometry (LC–MS); design: dose 5 uM, timepoint 0, 1.5, 3, 6, 9, 12 hours; conditions: 5 µM
[22] = as §2, with “A-08” for “A-02”; design: dose 5 uM, timepoint 0, 0.75, 1.5, 3, 6, 9, 12 hours; conditions: 5 µM
[23] = as §2, with “T-04” for “A-02”, “anaerobic” for “microaerobic”; design: dose 5 uM, timepoint 0, 0.75, 1.5, 3, 6, 9, 12 hours; conditions: 5 µM
[24] = as §2, with “A-05” for “A-02”, “anaerobic” for “microaerobic”; design: dose 5 uM, timepoint 0, 0.75, 1.5, 3, 6, 9, 12 hours; conditions: 5 µM
[25] = The drug is tested on Bifidobacterium longum strain: DSM20088 for biotransformation under anaerobic condition. The drug concentrations were measured over 6 timepoints collected between 0 and 12 hours of incubation by liquid-chromatography-coupled mass spectrometry (LC–MS); design: dose 5 uM, timepoint 0, 1.5, 3, 6, 9, 12 hours; conditions: 5 µM
[26] = The drug is tested on Gemella morbillorum strain: DSM20572 for biotransformation under anaerobic condition. The drug concentrations were measured over 6 timepoints collected between 0 and 12 hours of incubation by liquid-chromatography-coupled mass spectrometry (LC–MS); design: dose 5 uM, timepoint 0, 1.5, 3, 6, 9, 12 hours; conditions: 5 µM
[27] = The drug is tested on Lactobacillus paracasei strain: ATCC27092 for biotransformation under microaerobic condition. The drug concentrations were measured over 6 timepoints collected between 0 and 12 hours of incubation by liquid-chromatography-coupled mass spectrometry (LC–MS); design: dose 5 uM, timepoint 0, 1.5, 3, 6, 9, 12 hours; conditions: lacticaseibacillus paracasei, 5 µM
[28] = The drug is tested on Bacteroides xylanisolvens strain: HM 722 for biotransformation under anaerobic condition. The drug concentrations were measured over 6 timepoints collected between 0 and 12 hours of incubation by liquid-chromatography-coupled mass spectrometry (LC–MS); design: dose 5 uM, timepoint 0, 1.5, 3, 6, 9, 12 hours; conditions: 5 µM
[29] = The drug is tested on Clostridium ramosum strain: DSM1402 for biotransformation under anaerobic condition. The drug concentrations were measured over 6 timepoints collected between 0 and 12 hours of incubation by liquid-chromatography-coupled mass spectrometry (LC–MS); design: dose 5 uM, timepoint 0, 1.5, 3, 6, 9, 12 hours; conditions: thomasclavelia ramosa, 5 µM
[30] = as §2, with “A-04” for “A-02”; design: dose 5 uM, timepoint 0, 0.75, 1.5, 3, 6, 9, 12 hours; conditions: 5 µM

Structure (SMILES)	Bacterial Biotransformation [1]	Bacterial Biotransformation [2]	Bacterial Biotransformation [3]	Bacterial Biotransformation [4]	Bacterial Biotransformation [5]	Bacterial Biotransformation [6]	Bacterial Biotransformation [7]	Bacterial Biotransformation [8]	Bacterial Biotransformation [9]	Bacterial Biotransformation [10]	Bacterial Biotransformation [11]	Bacterial Biotransformation [12]	Bacterial Biotransformation [13]	Bacterial Biotransformation [14]	Bacterial Biotransformation [15]	Bacterial Biotransformation [16]	Bacterial Biotransformation [17]	Bacterial Biotransformation [18]	Bacterial Biotransformation [19]	Bacterial Biotransformation [20]	other results
CN(Cc1cnc2nc(N)nc(N)c2n1)c1ccc(C(=O)N[C@@H](CCC(=O)O)C(=O)O)cc1 [METHOTREXATE]	Compound NOT metabolized	Compound metabolized	Compound metabolized	Compound metabolized	Compound NOT metabolized	Compound NOT metabolized	Compound NOT metabolized	Compound NOT metabolized	Compound metabolized	Compound metabolized	Compound NOT metabolized	Compound NOT metabolized	Compound NOT metabolized	Compound NOT metabolized	Compound NOT metabolized	Compound NOT metabolized	Compound NOT metabolized	Compound NOT metabolized	Compound NOT metabolized	Compound NOT metabolized	Bacterial Biotransformation [21]: Compound NOT metabolized; Bacterial Biotransformation [22]: Compound metabolized; Bacterial Biotransformation [23]: Compound NOT metabolized; Bacterial Biotransformation [24]: Compound NOT metabolized; Bacterial Biotransformation [25]: Compound NOT metabolized; Bacterial Biotransformation [26]: Compound NOT metabolized; Bacterial Biotransformation [27]: Compound NOT metabolized; Bacterial Biotransformation [28]: Compound NOT metabolized; Bacterial Biotransformation [29]: Compound metabolized; Bacterial Biotransformation [30]: Compound metabolized
C[C@H]1C[C@@H]2[C@H]([C@@H](O)C[C@@]3(C)[C@H]2CC[C@]3(O)C(=O)CO)[C@@]2(C)C=CC(=O)C=C12 [METHYLPREDNISOLONE]	Compound NOT metabolized	Compound metabolized	Compound NOT metabolized	Compound metabolized	Compound metabolized	Compound NOT metabolized	Compound metabolized	Compound NOT metabolized	Compound NOT metabolized	Compound metabolized	Compound NOT metabolized	Compound NOT metabolized	Compound NOT metabolized	Compound NOT metabolized	Compound NOT metabolized	Compound NOT metabolized	Compound NOT metabolized	Compound metabolized	Compound NOT metabolized	Compound NOT metabolized	Bacterial Biotransformation [21]: Compound NOT metabolized; Bacterial Biotransformation [22]: Compound metabolized; Bacterial Biotransformation [23]: Compound NOT metabolized; Bacterial Biotransformation [24]: Compound metabolized; Bacterial Biotransformation [25]: Compound NOT metabolized; Bacterial Biotransformation [26]: Compound NOT metabolized; Bacterial Biotransformation [27]: Compound NOT metabolized; Bacterial Biotransformation [28]: Compound NOT metabolized; Bacterial Biotransformation [29]: Compound NOT metabolized; Bacterial Biotransformation [30]: Compound metabolized
COc1c(C)c2c(c(O)c1C/C=C(\C)CCC(=O)OCCN1CCOCC1)C(=O)OC2 [MYCOPHENOLATE MOFETIL]	Compound metabolized	Compound metabolized	Compound NOT metabolized	Compound metabolized	Compound metabolized	Compound metabolized	Compound metabolized	Compound metabolized	Compound NOT metabolized	Compound metabolized	Compound metabolized	Compound NOT metabolized	Compound NOT metabolized	Compound NOT metabolized	Compound metabolized	Compound metabolized	Compound metabolized	Compound metabolized	Compound NOT metabolized	Compound metabolized	Bacterial Biotransformation [21]: Compound metabolized; Bacterial Biotransformation [22]: Compound metabolized; Bacterial Biotransformation [23]: Compound metabolized; Bacterial Biotransformation [24]: Compound metabolized; Bacterial Biotransformation [25]: Compound metabolized; Bacterial Biotransformation [26]: Compound metabolized; Bacterial Biotransformation [27]: Compound NOT metabolized; Bacterial Biotransformation [28]: Compound metabolized; Bacterial Biotransformation [29]: Compound NOT metabolized; Bacterial Biotransformation [30]: Compound metabolized
